US8580806B2, “Salts of 4-methyl N-[3-(4-methyl-imidazol-1-yl)-5-trifluoromethyl-phenyl]-3-(4-pyridin-3-yl-pyrimidin-2-ylamino)-benzamide” (Novartis AG, priority 2005, dated 2013)
Where a name gives a salt, the structure may show the parent alone. Read-outs that look alike come from different tables or passages of the source.

How the values were obtained:
[1] = Hygroscopicity by TGA after one day at ambient temperature and 93% relative humidity; type: physicochemical; details: ambient temperature
Description: The hygroscopicity of the salts of the invention was determined by TGA after one day at ambient temperature and 93% relative humidity.

[2] = Decomposition temperature by TGA; type: physicochemical; details: for Decomposition temperature: TGA, onset of the first derivative of sample weight loss v. temperature; for decomposes at: as stated in the description of the embodiments
Description: The LOD and decomposition temperature of the salts of the invention were determined by TGA, and the melting point was determined by DSC.

[3] = pH 3.0 buffer, ambient temperature, at least 20 hours
Description: The solubility of the salts of the invention was determined in pH 6.8, pH 3.0 and pH 1.0 buffers by suspending 1-5 mg of each salt in 10 mL of corresponding aqueous solution. The samples were allowed to equilibrate at ambient temperature for at least 20 hours for pH 6.8 and 3.0 or about 5 hours for pH 1.0. The supernatant was filtered and used for the solubility determination by UV-VIS spectroscopy.

Compound	% moisture gain [1]	Decomposition temperature [2]	decomposes at [2]	further results
Cc1cn(-c2cc(NC(=O)c3ccc(C)c(Nc4nccc(-c5cccnc5)n4)c3)cc(C(F)(F)F)c2)cn1 [Benzene sulfonate, 4-methyl-N-[3-(4-methyl-imidazol-1-yl)-5-trifluoromethyl-phenyl]-3-(4-pyridin-3-yl-pyrimidin-2-ylamino)-benzamide mono benzyl sulfonate salt]	0.11%	260 °C	–	decomposes at ([2]; listed as benzene sulfonate salt): about 260 °C
CCS(=O)(=O)O.Cc1cn(-c2cc(NC(=O)c3ccc(C)c(Nc4nccc(-c5cccnc5)n4)c3)cc(C(F)(F)F)c2)cn1 [Ethane sulfonate, ethane sulfonate salt of 4-methyl-N-[3-(4-methyl-imidazol-1-yl)-5-trifluoromethyl-phenyl]-3-(4-pyridin-3-yl-pyrimidin-2-ylamino)-benzamide]	1.11%	220 °C	about 220 °C	Solubility at pH 3.0 [3]: 2.8 μg/mL
Cc1cn(-c2cc(NC(=O)c3ccc(C)c(Nc4nccc(-c5cccnc5)n4)c3)cc(C(F)(F)F)c2)cn1 [Methane sulfonate, 4-methyl-N-[3-(4-methyl-imidazol-1-yl)-5-trifluoromethyl-phenyl]-3-(4-pyridin-3-yl-pyrimidin-2-ylamino)-benzamide mesylate salt]	–	–	–	% moisture gain ([1]; mesylate salt): 0.22%; Decomposition temperature ([2]; mesylate salt): 260 °C; decomposes at ([2]; listed as methane sulfonate (mesylate) salt, mesylate salt): about 260 °C; Solubility at pH 3.0 ([3]; listed as Methane sulfonate salt, mesylate salt): 5.2 μg/mL
Cc1cn(-c2cc(NC(=O)c3ccc(C)c(Nc4nccc(-c5cccnc5)n4)c3)cc(C(F)(F)F)c2)cn1 [Monophosphate, 4-methyl-N-[3-(4-methyl-imidazol-1-yl)-5-trifluoromethyl-phenyl]-3-(4-pyridin-3-yl-pyrimidin-2-ylamino)-benzamide monophosphate salt]	–	–	–	% moisture gain ([1]; monophosphate salt): 1.33%; Decomposition temperature ([2]; monophosphate salt): 212 °C; decomposes at ([2]; monophosphate salt): about 212 °C
Cc1cn(-c2cc(NC(=O)c3ccc(C)c(Nc4nccc(-c5cccnc5)n4)c3)cc(C(F)(F)F)c2)cn1.O=S(=O)(O)O [Sulfate (form B), sulfate salt of 4-methyl-N-[3-(4-methyl-imidazol-1-yl)-5-trifluoromethyl-phenyl]-3-(4-pyridin-3-yl-pyrimidin-2-ylamino)-benzamide]	0.22%	201 °C	about 206 °C	Solubility at pH 3.0 [3]: 6.5 μg/mL
Cc1cn(-c2cc(NC(=O)c3ccc(C)c(Nc4nccc(-c5cccnc5)n4)c3)cc(C(F)(F)F)c2)cn1.O=P(O)(O)O.O=P(O)(O)O [diphosphate salt, diphosphate salt of 4-methyl-N-[3-(4-methyl-imidazol-1-yl)-5-trifluoromethyl-phenyl]-3-(4-pyridin-3-yl-pyrimidin-2-ylamino)-benzamide]	–	–	about 210 °C	–
Cc1cn(-c2cc(NC(=O)c3ccc(C)c(Nc4nccc(-c5cccnc5)n4)c3)cc(C(F)(F)F)c2)cn1 [p-Toluene sulfonate, 4-methyl-N-[3-(4-methyl-imidazol-1-yl)-5-trifluoromethyl-phenyl]-3-(4-pyridin-3-yl-pyrimidin-2-ylamino)-benzamide p-toluene sulfonate salt]	1.02%	256 °C	about 256 °C	–
